Measurements reported in patent publication US20260344665A1, “FUNGICIDAL COMPOUND” (priority 2022, published 2026).

Legend:
[1] = tested on: Zymoseptoria tritici; test: Leaf painting assay in wheat seedling, Zymoseptoria tritici preventive; format: in vivo; conditions: Experiment 1; 188.00 ppm; tip segment; preventive
Description: (§1) Wheat seedlings of the variety Riband (for Zymoseptoria tritici trials) or variety Arina (for Puccinia recondite trials) were grown in the glasshouse until 14d after seeding. At this time, such seedlings usually have a first leaf fully emerged (designated L1), a second leaf fully emerged (L2) and a third leaf (L3) that is partially emerged and in the process of development. Using a permanent pen, two dots were applied on the second leaf such as to generate three segments of roughly equal size: Segment A (at the base), segment B (middle part) and segment C (tip of the leaf). A stock solution of the compound of Formula (I) was produced in water and of benzovindiflupyr in DMSO at a concentration of 10,000 ppm. […] The diluted compound was applied to the middle segment of L2 using a conventional cotton stick; the cotton stick was soaked in the diluted compound and rubbed several times on the adaxial leaf surface between the two marks. One day later, the complete plant was inoculated with a fungal spore suspension using a paint brush. The spore suspension was applied until before run-off.
For infection with Zymoseptoria tritici (preventive), the test plants were inoculated by spraying a spore suspension on them one day after application (1.5 Mio spores per ml in water supplemented with 0.01% Tween20). After an incubation period of 4 days at 22 °C/21 °C (day/night) and 95% rh, the inoculated test plants were kept at 22 °C/21 °C (day/night) and 70% rh in a greenhouse.
(§2) The three segments of the leaf were evaluated individually.

[2] = tested on: Puccinia recondita f. sp. tritici; test: Leaf painting assay in wheat seedling, Puccinia recondita preventive; format: in vivo; conditions: 188.00 ppm, preventive
Description: as §1
For infection with Puccinia recondita (preventive): The test plants were inoculated by spraying them with a spore suspension one day after application (spore suspension at 80,000 spores per ml in water supplemented with Tween20 at 0.1%). After an incubation period of 1 day at 20 °C and 95% rh, the inoculated test plants were kept at 20 °C and 60% rh in a greenhouse.
as §2

[3] = tested on: Blumeria graminis f.sp. tritici; test: Powdery mildew assay in wheat (haustoria formation); format: in vivo; conditions: Blumeria graminis, 48 h, read-out: haustoria formation (% relative to control)
[4] = tested on: ROS production in wheat leaf discs; test: Reactive oxygen species (ROS) burst assay with wheat leaf discs; conditions: INA 100 μM; treated vs. control, 40 minutes
[5] = tested on: Blumeria graminis f.sp. tritici; test: Mixture with malonomicin, leaf disc, Blumeria graminis f.sp. tritici preventive; format: in vivo; conditions: foliar, 168 h, read-out: control of fungal growth
Excerpt: (§3) A stock solution for oligosaccharide compound according to the present invention was produced in water plus 0.025% Tween®20. Malonomicin was produced according to Law et al, 2018 (Nature Catalys is | VOL 1 | DECEMBER 2018 | 977-984). A stock solution of malonomicin was produced in water plus 0.025% Tween®20.
(§4) Assays to test efficacy of mixtures of the compound of Formula (I) in combination with malonomicin on the control of fungal pathogens in a leaf disc assay were designed for two 24 well plates.
(§5) Table 11 and Table 12: Outline of 24 well testplate (3) and testplate (4) including concentration of compounds per well. The upper number in the cell indicates the oligosaccharide compound of the present invention concentration (ppm), the lower number malonomicin concentration (ppm). Column (1) holds a dilution series of compound of Formula (I), row (4-D) hold a dilution series of malonomicin. Well 4-D-(1) represents an untreated check. This design was applied for tests including Blumeria graminis f.sp. tritici (EPPO code: ERYSGT) with preventive spray timing and Parastagonospora nodorum (EPPO code: LEPTNO) with preventive spray timing.
(§6) A first set of master plates with 1× concentrated spray solution of the compound of Formula (I) stock diluted in water with concentrations according to Table 8, Table 9, Table 11 and Table 12, respectively, was prepared. Each well contained 0.025% Tween®20. Accordingly, a second set of master plates with 1× concentrated malonomicin stock diluted in water was prepared. Each well of the second set contained 0.025% Tween®20. Leaf segments placed on agar in 24 well plates are sprayed with 8 ul of solution from the master plate containing compound of Formula (I) and the leaf segments were let to dry, followed 2 hours later by 8 ul of solution from the master plate containing malonomicin. After second sprays have dried, leaf segments are infected with fungal spores to obtain a preventive application timing. Alternatively, leaf segments infected one day before spray of the compounds are used, resulting in a curative spray timing. In addition, several plates were produced where leaf segments were sprayed 2× in absence of test compound (with only Tween®20), representing the untreated check samples. For each leaf segment percent leaf coverage of disease symptoms was assessed. Percent leaf coverage reduction relative to the untreated check was calculated. Efficacy of the mixtures was tested in duplicate and on different fungal species. Reported efficacy values are the average of two replicate results.
Blumeria graminis f.sp. tritici (EPPO Code: ERYSGT) with Preventive Spray Timing
(§7) Wheat (cultivar Kanzler) leaf segments are placed on agar in multiwell plates (24-well format) and sprayed with test solutions (8 ul per well). After drying, the leaf disks are inoculated with spores of the fungus. After appropriate incubation the activity of a compound is assessed 7 dpi (days post inoculation) as preventive fungicidal activity.

[6] = tested on: Puccinia recondita; test: Mixture with malonomicin, leaf disc, Puccinia recondita curative; format: in vivo; conditions: foliar, 192 h, read-out: control of fungal growth
Excerpt: (§8) An additional ingredient having pesticidal activity, for instance fungicidal activity may result in an unexpected synergistic activity. […] The action to be expected E for a given active ingredient combination obeys the so-called COLBY formula and can be calculated as follows (COLBY, S. R. “Calculating synergistic and antagonistic responses of herbicide combination”. Weeds, Vol. 15, pages 20-22; 1967): • ppm=milligrams of active ingredient (=a.i.) per liter of spray mixture • X=% action by active ingredient A) using p ppm of active ingredient • Y=% action by active ingredient B) using q ppm of active ingredient.
(§9) According to COLBY, the expected (additive) action of active ingredients A)+B) using p+q ppm of active ingredient is:
(§10) In mathematical terms, synergism corresponds to a positive value for the difference of (O-E). In the case of purely complementary addition of activities (expected activity), said difference (O-E) is zero. A negative value of said difference (O-E) signals a loss of activity compared to the expected activity.
as §3, §4
(§11) Table 8 and 9: Outline of 24 well testplate (1) and testplate (2) including concentration of compounds sprayed per well. The upper number in the cell indicates the oligosaccharide compound of the present invention concentration (ppm), the lower number malonomicin concentration (ppm). Column (1) holds a dilution series of compound of Formula (I), row (2-D) hold a dilution series of malonomicin. Well 2-D-(1) represents an untreated check. This design was applied for tests including Puccinia recondita (EPPO code: PUCCRE) with preventive and curative spray timing.
as §6
Puccinia recondita (EPPO Code: PUCCRE) with Curative Spray Timing.
Wheat (cultivar Kanzler) leaf segments are placed on agar in multiwell plates (24-well format). The leaf disks are then inoculated with a spore suspension of the fungus. One day after inoculation the test solution is sprayed (8 ul per well). After appropriate incubation the activity of a compound is assessed 8 dpi (days after inoculation) as curative fungicidal activity

[7] = tested on: Puccinia recondita; test: Mixture with malonomicin, leaf disc, Puccinia recondita preventive; format: in vivo
Excerpt: as §8, §9, §10, §3, §4, §11
as §6, with “In addition, several plates were produced where leaf segments were sprayed 2× in absence of test compound (with only Tween®20), representing the untreated check samples.” left out, “Efficacy of the mixtures was tested in duplicate and on different fungal species. Reported efficacy values are the average of two replicate results.” left out
Wheat (cultivar Kanzler) leaf segments are placed on agar in multiwell plates (24-well format) and sprayed with test solutions (8 ul per well). […] After appropriate incubation the activity of a compound is assessed 8 dpi (days after inoculation) as preventive fungicidal activity.

[8] = tested on: Parastagonospora nodorum; test: Mixture with malonomicin, leaf disc, Parastagonospora nodorum preventive; format: in vivo
Excerpt: as §3, §4, §5, §6
Parastagonospora nodorum (EPPO Code: LEPTNO)
as §7, with “a spore suspension” for “spores”, “4” for “7”, “after” for “post”

Cn1cc(C(=O)Nc2cccc3c2C2CCC3C2=C(Cl)Cl)c(C(F)F)n1 (centres unmarked) [benzovindiflupyr, reference compound]
% reduction fungal growth [1]: 99%
% reduction fungal growth ([2]; Experiment 2, base segment): 7%
% reduction fungal growth ([2]; Experiment 2, middle segment (treated)): 100%
% reduction fungal growth ([2]; Experiment 2, tip segment): 100%
% reduction fungal growth ([2]; Experiment 3, base segment): 21%
% reduction fungal growth ([2]; Experiment 3, middle segment (treated)): 100%
% reduction fungal growth ([2]; Experiment 3, tip segment): 100%
% reduction fungal growth ([2]; Experiment 4, base segment): 3%
% reduction fungal growth ([2]; Experiment 4, middle segment (treated)): 100%
% reduction fungal growth ([2]; Experiment 4, tip segment): 100%

O=C(O)c1cc(Cl)nc(Cl)c1 [INA, 2.6-dichloro-isonicotinic acid, reference compound]
activity at 100 µM [3]: 27.6%
Fold change (peak ROS) [4]: 1.8

NC[C@@H]1NC(=O)C(C(=O)CC(NC(=O)[C@@H](N)CO)(C(=O)O)C(=O)O)=C1O [malonomicin, {[(2S)-2-amino-3-hydroxypropanoyl]amino} {2-[(5S)-5-(aminomethyl)-4-hydroxy-2-oxo-2,5-dihydro-1H-pyrrol-3-yl]-2-oxoethyl} malonic acid, reference compound]
inhibition of growth at 7.4 µg/mL ([5]; malonomicin 7.4 ppm solo): 0%
inhibition of growth at 22.2 µg/mL ([5]; malonomicin 22.2 ppm solo): 0%
inhibition of growth at 66.7 µg/mL ([5]; malonomicin 66.7 ppm solo): 70%
inhibition of growth at 200 µg/mL ([5]; malonomicin 200 ppm solo): 100%
inhibition of growth at 600 µg/mL ([5]; malonomicin 600 ppm solo): 75%
inhibition of growth at 0.74 µg/mL ([6]; malonomicin 0.74 ppm solo): 35%
inhibition of growth at 2.22 µg/mL ([6]; malonomicin 2.22 ppm solo): 70%
inhibition of growth at 6.67 µg/mL ([6]; malonomicin 6.67 ppm solo): 100%
inhibition of growth at 20 µg/mL ([6]; malonomicin 20 ppm solo): 100%
inhibition of growth at 200 µg/mL ([6]; malonomicin 200 ppm solo): 100%
control of fungal growth ([7]; malonomicin 0.74 ppm solo): 0%
control of fungal growth ([7]; malonomicin 2.22 ppm solo): 10%
control of fungal growth ([7]; malonomicin 6.67 ppm solo): 80%
control of fungal growth ([7]; malonomicin 20 ppm solo): 100%
control of fungal growth ([7]; malonomicin 200 ppm solo): 100%
control of fungal growth ([8]; malonomicin 7.4 ppm solo): 0%
control of fungal growth ([8]; malonomicin 22.2 ppm solo): 45%
control of fungal growth ([8]; malonomicin 66.7 ppm solo): 50%
control of fungal growth ([8]; malonomicin 200 ppm solo): 90%
control of fungal growth ([8]; malonomicin 600 ppm solo): 95%
